Results on two substances are retold here after patent US9492508B2, “Parathyroid hormone analogs and uses thereof” (The General Hospital Corporation, priority 2010, dated 2016).

The nature of data set [1]: Repetitive daily dosing in TPTX rats (10 days). Format: in vivo, rat. The protocol: FIGS. 20A-20D are graphs showing effects of once-daily SP-PTH on serum and urine Ca in TPTX rats. TPTX and sham-control rats were treated once daily, for 10 days, via sc. injection with either vehicle (Sham and TPTX) or SP-PTH (SEQ ID NO:11) (1, 2. 4, or 8 nmol/kg), or with 1,25(OH)2D (0.075 or 0.2 μg/kg. orn). After the last injection on day 10, the rats were placed in metabolic cages, and jugular vein blood was obtained at 8 (FIG. 20A) and 24 hrs (FIG. 20B); urine was collected for the intervals 0-8 (FIG. 20C) and 8-24 hrs (FIG. 20D); means±s.e.m: n=5; ′˜, P vs vehicle <005.
In therapeutic use in humans, one would administer doses sufficient to only normalize blood Ca. A key experiment is to determine if it is indeed feasible to normalize sCa following a repetitive dosing regimen. We thus performed the experiment of FIGS. 20A-2D, in which TPTX rats were treated daily for 10 days with SP-PTH at doses of 1, 2, 4 and 8 nmol/kg (s.c). For comparison, 1,25(OH)2-vitamin-D (calcitriol) at doses of 0.075 and 0.2 mcg/kg (oral) were used for the same time periods.

The test system of the next data set is MC3T3-E1 cells. The data set can be described thus: cAMP RIA in intact MC3T3-E1 cells. The note with it: 30 min, room temperature, IBMX; for cAMP MC3T3-E1 cells EC50 (Log M): 6 experiments. Format: cell-based, mouse. In a few lines: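 Intact mouse pre-osteoblastic MC3T3-E1 cells were stimulated with polypeptide. cAMP in HCl lysates was measured by radioimmunoassay. Values are means of six duplicate experiments with fitted curves.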

A further data set deals with T1, PD PTH receptor (Mus musculus, UniProt P41593, S489A/S491A/S492A/S493A/S495A/S501A/S504A).
T1 construct: endogenous in cells; host or cells: knock-in mice (in vivo)
T1 sequence (P41593 27-591 S489A/S491A/S492A/S493A/S495A/S501A/S504A): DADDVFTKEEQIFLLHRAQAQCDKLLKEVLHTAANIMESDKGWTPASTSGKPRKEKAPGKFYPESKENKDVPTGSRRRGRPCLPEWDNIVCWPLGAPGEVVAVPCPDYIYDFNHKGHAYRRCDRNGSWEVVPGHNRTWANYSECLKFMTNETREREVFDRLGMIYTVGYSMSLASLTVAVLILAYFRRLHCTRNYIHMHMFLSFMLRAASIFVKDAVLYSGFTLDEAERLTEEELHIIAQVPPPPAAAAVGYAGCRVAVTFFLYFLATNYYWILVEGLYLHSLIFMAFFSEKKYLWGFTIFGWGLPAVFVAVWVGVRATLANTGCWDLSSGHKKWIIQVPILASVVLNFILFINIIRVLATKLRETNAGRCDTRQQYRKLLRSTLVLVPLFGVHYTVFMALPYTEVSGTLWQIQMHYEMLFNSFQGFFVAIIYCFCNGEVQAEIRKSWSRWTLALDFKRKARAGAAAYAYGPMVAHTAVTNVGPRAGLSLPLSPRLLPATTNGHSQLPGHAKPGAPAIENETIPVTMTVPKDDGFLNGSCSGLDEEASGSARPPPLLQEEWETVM
The experiment in a line: Blood calcium and cAMP in knock-in mice with phosphorylation-deficient (PD) PTH receptor vs wild-type. Format: in vivo. The note with it: FIG. 19. The method, then: The activity of SP-PTH-AAK (SEQ ID NO:4) was tested in “knock-in” mice that express a PD PTH receptor in place of the wild-type PTH receptor (Bounoutas et al., Endocrinology 147: 4674, 2006).
Blood cAMP levels were also compared between the two types of mice.

Data set [2] can be described thus: Stability in phosphate-citrate buffers and 10 mM acetic acid, reverse-phase HPLC. The note with it: 4 weeks. The data set is classed as physicochemical. The protocol:
The amount of intact SP-PTH-AAK (SEQ ID NO:4) peptide remaining in the sample, as compared to the starting sample, was measured by rPHPLC.
Stability testing of SP-PTH-AAK (SEQ ID NO:4) was also performed. SP-PTH-AAK (SEQ ID NO:4) was stored at different peptide concentrations in 50 mM phosphate-citrate (PC) buffer (pH 4.0, 4.5, and 5.5) and 10 mM acetic acid at 5, 25, and 40° C. for 4 weeks.

In another data set the target is T2, rat PTHR1 (RG) (Rattus norvegicus, UniProt P25961).
T2 construct: expressed in transfected cells
T2 sequence (P25961 27-591): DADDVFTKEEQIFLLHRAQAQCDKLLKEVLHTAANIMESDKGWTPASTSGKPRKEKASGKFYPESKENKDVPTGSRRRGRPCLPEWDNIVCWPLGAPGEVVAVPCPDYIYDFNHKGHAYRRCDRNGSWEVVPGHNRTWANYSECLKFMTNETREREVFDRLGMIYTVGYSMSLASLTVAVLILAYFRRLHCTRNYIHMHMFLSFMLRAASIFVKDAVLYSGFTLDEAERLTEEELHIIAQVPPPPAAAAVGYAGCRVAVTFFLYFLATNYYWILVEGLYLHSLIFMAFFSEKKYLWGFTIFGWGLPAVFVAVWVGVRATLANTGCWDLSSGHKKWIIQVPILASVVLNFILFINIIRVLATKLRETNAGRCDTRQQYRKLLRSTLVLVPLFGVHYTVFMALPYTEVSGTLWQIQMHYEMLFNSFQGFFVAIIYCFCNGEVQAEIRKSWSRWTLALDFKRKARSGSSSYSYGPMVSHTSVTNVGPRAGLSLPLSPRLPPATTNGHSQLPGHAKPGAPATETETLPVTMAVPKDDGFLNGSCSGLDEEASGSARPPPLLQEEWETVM
The experiment in a line: Competition binding, RG conformation of rat PTHR1. An excerpt: Briefly, the R^0 form of the receptor can be favored by addition of the non-hydrolyzable nucleotide analog GTPγS. The RG form can be favored, for example, by co-transfection of cells with a negative dominant Gαs subunit. […] Data are means of four experiments, each performed in duplicate. Curves were fit to the data using Graph-Pad Prism 4.0.

The conditions of data set [3]: rat, in vivo, iv, 24.3 nmol/kg.
The next data set can be described thus: in vivo. The note with it: rat, iv, 24.3 nmol/kg.
[4] abbreviates: 4 nmol/kg s.c. once daily 10 days.

Entries after “also recorded” stand apart in the source; their conditions may differ. Ends that are not written are not given here.

In the case of “AVAEIQLMHQRAKWIQDLRRRFFLHHLIAEIHTAEI-OH [SP-PTH, [Ala^1,3,12,Gln^10,Arg^11,Trp^14]PTH(1-14)/PTHrP(15-36)]”, in data set [1] (setting [4]), the “sCa at 8 hours after the last injection” value was “avoided hypercalcemia” and the “sCa at 24 hours after the last injection” value was “maintained near-normal sCa”. Also, in data set [1] (SP-PTH 4 nmol/kg s.c. once daily 10 days), the urine calcium excretion result is reported as “low at all time points”. Besides, in the data set on MC3T3-E1 cells, the concentration for a half-maximal effect (EC50) is 0.044 nM, the “cAMP MC3T3-E1 cells Emax (pmole/well)” value worked out at 60.6 ± 12.4 pmole/well and the “cAMP MC3T3-E1 cells EC50 (Log M)” value was −10.4 ± 0.1 Log M.

Consider “AVAEIQLMHQRAKWIQDARRRAFLHKLIAEIHTAEI-OH [SP-PTH-AAK, [Ala^1,3,12,18,22,Gln^10,Arg^11,Trp^14,Lys^26]PTH(1-14)/PTHrP(15-36)]”, for which, on PD PTH receptor, the “blood calcium level in PD mice” value is reported as “reduced blood calcium level for at least six hours after injection”. The “stability, intact peptide by reverse-phase HPLC at 25° C.” value in data set [2] (50 mM PC buffer pH 4.0, 4.5, 5.5 and 10 mM acetic acid, 25° C.) is listed as “near full stability”. For the same substance, the “stability at 40° C., HPLC finding” value in data set [2] (40° C.) is given as “a degraded product, likely a methionine-oxide derivative, was detected”. Besides, on rat PTHR1 (RG) (FIG. 1B), the “binding to RG form of rat PTHR1, comparison in words” value was “strongest binding; also recorded: increased”. Moreover, the IC50 at rat PTHR1 (RG) (RG conformation, read-out: Binding rat PTHR1 IC50 nM RG (converted)) is 0.1 nM. Further, in the data set with MC3T3-E1 cells, it took 0.0063 nM to reach a half-maximal effect (EC50), the “cAMP MC3T3-E1 cells Emax (pmole/well)” value is on record as 62.3 ± 13.6 pmole/well and the “cAMP MC3T3-E1 cells EC50 (Log M)” value is reported as −11.2 ± 0.2 Log M. For the same substance, the AUCinf in data set [3] was 1131 pmol·min/mL. Besides, in the data set “in vivo” (Crl:CD(SD)), the MRT is 5.83 min, the Vd amounted to 0.126 L/kg, the clearance amounted to 21.6 mL/min/kg and the half-life amounted to 7.27 min. In addition, in the data set “in vivo”, the AUC(0-t) was 0.0187 µM·h.

What is called EC50 is the concentration giving half of the maximal effect. Read a low EC50 as an effect from little substance. As a reminder, the IC50 is the concentration that gives 50% inhibition. What is called MRT is a mean duration of stay, worked out from the concentration-time curve. The term Vd denotes a proportionality between amount in the body and measured concentration, not a real space. The low end stands for confinement near the circulation, the high end for extensive tissue distribution. What is called clearance is a measure of how efficiently the substance is removed, as volume per time. A word on the half-life: it is how long it takes for the measured level to halve. The low end stands for rapid decline, the high end for slow decline. The AUC(0-t) is exposure summed from dosing to a finite time, without extrapolation to infinity. A high value points to high exposure.
